According to patent US20130084335A1, “IVABRADINE-CONTAINING PHARMACEUTICAL COMPOSITION” (ratiopharm GmbH, priority 2010, published 2013):

Key:
[1] = Particle size by laser diffractometry; type: physicochemical
Experimental: The term “particle size” according to the present invention relates to the maximum diameter of the equivalent product assuming spherical opaque particles showing the same light scattering pattern and the same diffraction as the active substance particles. According to the invention the particle size is determined by means of laser light diffraction. The determination of the size distribution results from the analysis of the diffraction pattern that is obtained if particles are exposed to a monochromatic light beam. The particles refract the light with small particles refracting the light in a greater angle than large particles. The refracted light is measured by a number of photo detectors arranged in different angles. On the other hand, the light spectra of the […] have to be recorded by light-sensitive detectors in greater angles over the laser beam. Large particles result in greater intensity maxima with small angles, small particles to weaker intensity maxima with greater angles. Thus, in the laser light diffraction the pattern resulting from the interaction of the light with the particles is used for the determination of the particle size.
According to the invention the particle size is determined by means of laser diffractometry. For that, a Mastersizer 2000 by Malvern Instruments having the corresponding sample dispersing unit Hydro S is used. The wet measurement (2500 rpm, ultrasound 10-20 min., shading 5 to 20%) takes place in a dispersion of sunflower oil with the particle spacing in the dispersion being about 3-5 times greater than the particle diameter.
Moreover, the Mie theory defines the secondary scattering caused by the refraction of the light on small particles, as in the international rules of the laser diffraction measurement. (ISO 13320)
The determination of the particle size for particles D50 smaller than 5.0 μm is carried out according to the Mie method and for particles D50 greater than 5.0 μm according to the Fraunhofer method.

[2] = Stability at different temperatures and humidities in open or closed containers (polymorphic form); type: physicochemical; conditions: for Stability, summary in words: various conditions, phase transition in particular in open containers
Experimental: XRD samples were analysed on a Bruker-AXS D8 Advance powder X-Ray diffractometer. The measurement conditions were as follows: • Measurement in Bragg-Brentano-Geometry on vertical goniometer (reflection, theta/theta, 435 mm measurement circle diameter) • with sample rotation (30 rpm) on 9 position sample stage • Radiation: Cu Kα1 (1.5406 Å), Tube (Siemens FLCu2K), power 40 kV/40 mA • Detector: position sensitive detector VANTEC-1 • 3° capture angle (2theta), • Anti scatter slit 6.17 mm • Detector slit 10.39 mm • 4° soller slit, • primary beam stop (<2° 2theta) • Monochromator: None • Second β filter: Ni filter 0.1 mm (0.5%) • Start angle: 2° • End Angle: 55° • Measurement time: 11 min • Step: 0.016° 2Theta • Software: EVA (Bruker-AXS, Karlsruhe).
The stability of ivabradine adipate in comparison to ivabradine hydrochloride form I was investigated at different temperatures and humidities in open or closed containers for different storage times.

Particle size D50 [1] [μm] | Particle size D90 [1] [μm] | Stability (crystal form after storage) ([2]; 25° C./60%, closed, 33 d) | Stability (crystal form after storage) ([2]; 25° C./60%, open, 33 d) | Stability (crystal form after storage) ([2]; 30° C./65%, closed, 33 d) | Stability (crystal form after storage) ([2]; 30° C./65%, open, 33 d) | Stability (crystal form after storage) ([2]; 40° C./75%, closed, 33 d) | Stability (crystal form after storage) ([2]; 40° C./75%, open, 33 d) | Stability (crystal form after storage) ([2]; 25° C./60%, closed, 57 d) | Stability (crystal form after storage) ([2]; 25° C./60%, open, 57 d) | Stability (crystal form after storage) ([2]; 30° C./65%, closed, 57 d) | Stability (crystal form after storage) ([2]; 30° C./65%, open, 57 d) | Stability (crystal form after storage) ([2]; 40° C./75%, closed, 57 d) | Stability (crystal form after storage) ([2]; 40° C./75%, open, 57 d) | SMILES | Stability, summary in words [2]
19.10 | 44.11 | unchanged | β + | unchanged | β | unchanged | β |  |  |  |  |  |  | COc1cc2c(cc1OC)CC(=O)N(CCCN(C)C[C@H]1Cc3cc(OC)c(OC)cc31)CC2.Cl [Ivabradine HCl form I] | undergoes phase transition into ivabradine HCl, form beta, or form d
18.35 | 52.71 |  |  |  |  |  |  | unchanged | unchanged | unchanged | unchanged | unchanged | unchanged | COc1cc2c(cc1OC)CC(=O)N(CCCN(C)C[C@H]1Cc3cc(OC)c(OC)cc31)CC2.O=C(O)CCCCC(=O)O [Ivabradine adipate] | stable at various conditions
